Results published in US20260327191A1, “GSK3a INHIBITORS AND METHODS OF USE THEREOF” (Blueprint Medicines Corporation, priority 2023, published 2026).

Columns and labels:
human GSK3α = target: T1, human GSK3α (Homo sapiens, UniProt P49840); experiment: In vitro enzymatic activity assay, GSK3α; type: biochemical; conditions: 1.0 mM ATP, 1.0 μM peptide substrate, 120 min, 25° C, read-out: Enzyme GSK3α (IC50)
T1 construct: Full length human GSK3α or GSK3B expressed as N-terminal GST fusion proteins; GST (N); purchased Carna Biosciences (Japan); host or cells: baculovirus host
T1 sequence (P49840 whole entry, the tested form may be a part): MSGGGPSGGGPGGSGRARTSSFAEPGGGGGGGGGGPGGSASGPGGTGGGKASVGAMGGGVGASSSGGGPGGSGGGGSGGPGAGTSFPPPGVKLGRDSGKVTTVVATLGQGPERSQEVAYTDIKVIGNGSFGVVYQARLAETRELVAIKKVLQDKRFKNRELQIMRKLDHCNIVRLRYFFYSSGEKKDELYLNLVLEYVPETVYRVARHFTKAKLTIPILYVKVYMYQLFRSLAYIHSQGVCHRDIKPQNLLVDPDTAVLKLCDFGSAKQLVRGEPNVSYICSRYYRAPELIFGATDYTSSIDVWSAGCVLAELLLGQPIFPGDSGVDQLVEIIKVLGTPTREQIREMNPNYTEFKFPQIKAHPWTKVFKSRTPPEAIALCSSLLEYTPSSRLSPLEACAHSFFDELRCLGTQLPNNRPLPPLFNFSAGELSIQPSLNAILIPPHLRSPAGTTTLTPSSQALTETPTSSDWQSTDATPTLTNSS
Experimental: (§1) Full length human GSK3α or GSK3B expressed as N-terminal GST fusion proteins in baculovirus host were purchased from Carna Biosciences (Japan). The kinase was pre-incubated with ATP (adenosine-5′-triphosphate) for 45 min, then incubated with tested compounds for another 45 min in assay buffer that contains 100 mM HEPES (N-2-hydroxyethylpiperazine-N′-2-ethanesulfonic acid), pH 7.5, 10 mM MgCl2, 1.0 mM DTT, and 0.015% Briji-35. […] Percent inhibition was plotted against compound concentration to generate 10-point dose response curve with 3-fold serial dilution starting from 10 μM. IC50 value was determined from the 4-parameter logistic curve fitting.

GSK3A = target: T2, GSK3A (Homo sapiens, UniProt P49840); experiment: NanoBRET cellular target engagement assay, Nanoluc-GSK3A in HEK293 cells; type: cell-based; conditions: NanoBRET GSK3α IC50, HEK293 cells, tracer K-8, 2 hours, 37° C
T2 construct: expressed in transfected cells
T2 sequence (P49840 whole entry): as the sequence (P49840 whole entry, the tested form may be a part) above
Experimental: (§2) In the assay, HEK293 cells stably expressing either Nanoluc-GSK3A or Nanoluc-GSK3B were maintained in culture media and seeded, using a multidrop dispenser, at a density of 5×10^3 cells per well in 384-well white plates with 100 ng/ml doxycycline (Sigma) overnight.
(§3) Compound was first diluted in DMSO to generate a 9-point serial dilution then diluted to 10× final concentration in Opti-MEM™ (Gibco). After overnight incubation, cell medium was aspirated from the seeded cells using a microplate automatic washer, then 27 μL of pre-warmed Opti-MEM™ with kinase tracer (K-8) and 3 μL of Opti-MEM™ diluted DMSO or compounds were added per well. Plates were protected from light, mixed in an orbital shaker for 3 min at RT and incubated at 37° C., 5% CO2 in a humidified incubator for 2 hours. After acclimation at RT for 15 min, 15 μL of 3× complete NanoBRET™ Nano-Glo Substrate/Inhibitor (Promega) was added per well. Plates were mixed in an orbital shaker for 3 min at RT and incubated for an additional 30 min. Donor emission at 460 nm and acceptor emission at 647 nm were measured in EnVision multilabel plate reader (Perkin Elmer).

GSK3B [1] = target: T3, GSK3B (Homo sapiens, UniProt P49841); experiment: NanoBRET cellular target engagement assay, Nanoluc-GSK3B in HEK293 cells; type: cell-based; design: expressed in transfected cells; conditions: NanoBRET GSK3β IC50, HEK293 cells, tracer K-8, 2 hours, 37° C
T3 sequence (P49841 whole entry): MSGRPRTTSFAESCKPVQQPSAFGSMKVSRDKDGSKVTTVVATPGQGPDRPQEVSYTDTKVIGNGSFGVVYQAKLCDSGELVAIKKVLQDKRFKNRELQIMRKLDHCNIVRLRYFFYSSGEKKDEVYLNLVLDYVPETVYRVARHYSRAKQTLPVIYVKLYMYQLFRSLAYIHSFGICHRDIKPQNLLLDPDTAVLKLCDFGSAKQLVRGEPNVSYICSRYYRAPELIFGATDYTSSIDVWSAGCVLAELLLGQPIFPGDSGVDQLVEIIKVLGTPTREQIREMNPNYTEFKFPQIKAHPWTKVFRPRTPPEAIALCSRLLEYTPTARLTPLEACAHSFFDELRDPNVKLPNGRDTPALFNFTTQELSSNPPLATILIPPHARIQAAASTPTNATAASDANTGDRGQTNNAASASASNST
Experimental: as §2, §3

GSK3B [2] = target: T3, GSK3B; experiment: In vitro enzymatic activity assay, GSK3β; type: biochemical; design: Full length human GSK3α or GSK3B expressed as N-terminal GST fusion proteins; GST (N); purchased Carna Biosciences (Japan); host or cells: baculovirus host; conditions: 1.0 mM ATP, 1.0 μM peptide substrate, 120 min, 25° C, read-out: Enzyme GSK3β (IC50)
Experimental: as §1

Row | IC50 (human GSK3α) [nM] | IC50 (GSK3A) [nM] | IC50 (GSK3B [1]) [nM] | IC50 (GSK3B [2]) [nM] | SMILES
1 | 6.4 | 8.3 | 461 | 343 | CN[C@H](C)c1cccc(NC(=O)c2c(N)ncn(-c3c(C)cc(C(F)(F)F)cc3Cl)c2=O)c1 (atropisomer, axis not shown) [Example 33, 4-amino-1-((S)-2-chloro-6-methyl-4-(trifluoromethyl)phenyl)-N-(3-((R)-1-(methylamino)ethyl)phenyl)-6-oxo-1,6-dihydropyrimidine-5-carboxamide]
2 | 7.3 | 4.4 | 290 | 302 | COc1cc(C)c(-n2cnc(N)c(C(=O)Nc3cccc([C@@H]4CCCN4)c3)c2=O)c(Cl)c1 (atropisomer, axis not shown) [Example 36, (S)-4-amino-1-((S)-2-chloro-4-methoxy-6-methylphenyl)-6-oxo-N-(3-(pyrrolidin-2-yl)phenyl)-1,6-dihydropyrimidine-5-carboxamide]
3 | 4.8 | 2.9 | 257 | 298 | COC[C@@H](N)c1cccc(NC(=O)c2c(N)ncn(-c3c(C)cc(C#N)cc3Cl)c2=O)c1 (atropisomer, axis not shown) [Example 42, (S)-4-amino-N-(3-(1-amino-2-methoxyethyl)phenyl)-1-((S)-2-chloro-4-cyano-6-methylphenyl)-6-oxo-1,6-dihydropyrimidine-5-carboxamide]
4 | 6.3 | 4.8 | 353 | 383 | CCOc1cc(C)c(-n2cnc(N)c(C(=O)Nc3cccc([C@@H](C)NC)c3)c2=O)c(Cl)c1 (atropisomer, axis not shown) [Example 71, (R)-4-amino-1-((S)-2-chloro-4-ethoxy-6-methylphenyl)-N-(3-(1-(methylamino)ethyl)phenyl)-6-oxo-1,6-dihydropyrimidine-5-carboxamide]
5 | 7.5 | 5.1 | 379 | 468 | CCOc1cc(C)c(-n2cnc(N)c(C(=O)Nc3cccc([C@H](N)COC)c3)c2=O)c(Cl)c1 (atropisomer, axis not shown) [Example 72, (S)-4-amino-N-(3-(1-amino-2-methoxyethyl)phenyl)-1-((S)-2-chloro-4-ethoxy-6-methylphenyl)-6-oxo-1,6-dihydropyrimidine-5-carboxamide]
6 | 3.8 | 2.4 | 141 | 199 | CNC(C)c1cncc(NC(=O)c2c(N)ncn(-c3c(Cl)cc(Cl)cc3Cl)c2=O)c1 (single isomer, unassigned) [Example 12, (R)-4-amino-N-(5-(1-(methylamino)ethyl)pyridin-3-yl)-6-oxo-1-(2,4,6-trichlorophenyl)-1,6-dihydropyrimidine-5-carboxamide or (S)-4-amino-N-(5-(1-(methylamino)ethyl)pyridin-3-yl)-6-oxo-1-(2,4,6-trichlorophenyl)-1,6-dihydropyrimidine-5-carboxamide]
7 | 17.7 | 9.8 | 503 | 1010 | CNC(C)c1cncc(NC(=O)c2c(N)ncn(-c3c(Cl)cc(Cl)cc3Cl)c2=O)c1 (single isomer, unassigned) [Example 13, (S)-4-amino-N-(5-(1-(methylamino)ethyl)pyridin-3-yl)-6-oxo-1-(2,4,6-trichlorophenyl)-1,6-dihydropyrimidine-5-carboxamide or (R)-4-amino-N-(5-(1-(methylamino)ethyl)pyridin-3-yl)-6-oxo-1-(2,4,6-trichlorophenyl)-1,6-dihydropyrimidine-5-carboxamide]
8 | 3 | 2 |  |  | Cc1cc(C(F)CF)cc(C)c1-n1cnc(N)c(C(=O)Nc2cncc([C@H]3CCCCN3)c2)c1=O (single isomer, unassigned) [Example 111, 4-amino-1-(4-((R)-1,2-difluoroethyl)-2,6-dimethylphenyl)-6-oxo-N-(5-((R)-piperidin-2-yl)pyridin-3-yl)-1,6-dihydropyrimidine-5-carboxamide or 4-amino-1-(4-((S)-1,2-difluoroethyl)-2,6-dimethylphenyl)-6-oxo-N-(5-((R)-piperidin-2-yl)pyridin-3-yl)-1,6-dihydropyrimidine-5-carboxamide]

Further lines, the compound ahead of its results:

Row | SMILES | IC50 (human GSK3α) [nM] | IC50 (GSK3A) [nM] | IC50 (GSK3B [1]) [nM] | IC50 (GSK3B [2]) [nM]
9 | COC[C@@H](N)c1cccc(NC(=O)c2c(N)ncn(-c3c(C)cc(OC)cc3Cl)c2=O)c1 (atropisomer, axis not shown) [Example 1, (S)-4-amino-N-(3-(1-amino-2-methoxyethyl)phenyl)-1-((S)-2-chloro-4-methoxy-6-methylphenyl)-6-oxo-1,6-dihydropyrimidine-5-carboxamide] | 3.6 | 3.6 | 243 | 168
10 | CN[C@H](C)c1cccc(NC(=O)c2c(N)ncn(-c3c(C)cc(OC)cc3Cl)c2=O)c1 (atropisomer, axis not shown) [Example 2, (R)-4-amino-1-((S)-2-chloro-4-methoxy-6-methylphenyl)-N-(3-(1-(methylamino)ethyl)phenyl)-6-oxo-1,6-dihydropyrimidine-5-carboxamide] | 7 | 4.9 | 329 | 399
11 | CN[C@H](C)c1cccc(NC(=O)c2c(N)ncn(-c3c(C)cccc3Cl)c2=O)c1 (atropisomer, axis not shown) [Example 3, (R)-4-amino-1-((S)-2-chloro-6-methylphenyl)-N-(3-(1-(methylamino)ethyl)phenyl)-6-oxo-1,6-dihydropyrimidine-5-carboxamide] | 6.6 | 5 | 395 | 344
12 | COC[C@@H](N)c1cccc(NC(=O)c2c(N)ncn(-c3c(Cl)cccc3C(F)F)c2=O)c1 (atropisomer, axis not shown) [Example 7, (S)-4-amino-N-(3-(1-amino-2-methoxyethyl)phenyl)-1-((S)-2-chloro-6-(difluoromethyl)phenyl)-6-oxo-1,6-dihydropyrimidine-5-carboxamide] | 7.5 | 7.1 | 480 | 337
13 | Cc1cc(C#N)cc(Cl)c1-n1cnc(N)c(C(=O)Nc2cccc([C@@H](C)N)c2)c1=O (atropisomer, axis not shown) [Example 8, (R)-4-amino-N-(3-(1-aminoethyl)phenyl)-1-((S)-2-chloro-4-cyano-6-methylphenyl)-6-oxo-1,6-dihydropyrimidine-5-carboxamide] | 4.8 | 3.3 | 169 | 204
14 | CCNCc1cccc(NC(=O)c2c(N)ncn(-c3c(C)cc(C(F)F)cc3Cl)c2=O)c1 (atropisomer, axis not shown) [Example 11, 4-amino-1-((S)-2-chloro-4-(difluoromethyl)-6-methylphenyl)-N-(3-((ethylamino)methyl)phenyl)-6-oxo-1,6-dihydropyrimidine-5-carboxamide] | 14.4 | 4.1 | 252 | 648
15 | [2H]C([2H])([2H])NC(C)c1cncc(NC(=O)c2c(N)ncn(-c3c(C)cc(OC)cc3Cl)c2=O)c1 (single isomer, unassigned) [Example 4, (R)-4-amino-1-((S)-2-chloro-4-methoxy-6-methylphenyl)-N-(5-(1-((methyl-d3)amino)ethyl)pyridin-3-yl)-6-oxo-1,6-dihydropyrimidine-5-carboxamide or (S)-4-amino-1-((S)-2-chloro-4-methoxy-6-methylphenyl)-N-(5-(1-((methyl-d3)amino)ethyl)pyridin-3-yl)-6-oxo-1,6-dihydropyrimidine-5-carboxamide] | 3.7 | 1.4 | 109 | 187
16 | CNC(C)c1cncc(NC(=O)c2c(N)ncn(-c3c(Cl)cc(C#N)cc3Cl)c2=O)c1 (single isomer, unassigned) [Example 9, (R)-4-amino-1-(2,6-dichloro-4-cyanophenyl)-N-(5-(1-(methylamino)ethyl)pyridin-3-yl)-6-oxo-1,6-dihydropyrimidine-5-carboxamide or (S)-4-amino-1-(2,6-dichloro-4-cyanophenyl)-N-(5-(1-(methylamino)ethyl)pyridin-3-yl)-6-oxo-1,6-dihydropyrimidine-5-carboxamide] | 9.5 | 7.4 | 430 | 661
